Data on nine molecules can be found in US4024263A, “1,3-Dihydrospiro[isobenzofuran-1,4'-piperidine]s” (American Hoechst Corporation, priority 1975, dated 1977).

Like-named read-outs stand apart in the source and are kept apart here. Bounds are passed on as bounds.

Data set [1] deals with 2-phenyl-1,4-quinone-induced writhing. Description: 2-phenyl-1,4-quinone-induced writhing assay (analgesia). It counts as in vivo. To be noted: 50 mg/kg of body weight oral dose, mice. From the text:
Exptl. Biol. Med., Vol. 45, 729 (1957)].
In general terms: An intraperitoneal irritant provokes the stretching counted in writhing tests.

The subject of data set [2] is tetrabenzazine-induced depression. Description: inhibition of tetrabenzazine-induced depression (ptosis), antidepressant activity. It counts as in vivo, mice. Conditions: Mus musculus, ip, read-out: Antidepressant ED50 (50% inhibition of ptosis of tetrabenzazine-induced depression). From the text:
(§1) The results are expressed in ED50 's (intraperitoneal dose effecting a 50% inhibition of ptosis of tetrabenzazine-induced depression in mice). The doses are in mg/kg of body weight. […] The toxicity data is expressed in ALD50 's (the acute lethal intraperitoneal dose, mg/kg of body weight, in 50% of the mice tested).

Data set [3] concerns supra maximal electro shock. Description: protection from supra maximal electro shock, anticonvulsant activity (method of Woodbury and Davenport). Conditions: intraperitoneal dose of about 5 mg/kg of body weight. It counts as in vivo. On the procedure:
The compounds of the invention are useful as anticonvulsant agents for mammals, as determined by the method of Woodbury, L. A. and Davenport, V. D., in Arch. Int. Pharmacodynam, Vol. 92, (1952) at pages 97-107. For example, 1'-amino-1,3-dihydro-3-phenylspiro[isobenzofuran-1,4'-piperidine]at an intraperitoneal dose of about 5 mg/kg of body weight produced a 50% protection from the effect of a supra maximal electro shock. This datum illustrates the utility of the compounds of the invention for the treatment of convulsion in mammals when administered in amounts ranging from 0.1 to 50 mg/kg of body weight per day.

Data set [4] can be described thus: acute lethal toxicity (ALD50). Conditions: mouse, in vivo, ip; intraperitoneal, groups of four mice; read-out: Toxicity ALD50 (acute lethal dose in 50% of the mice tested).
From the text: as §1

As a reminder, the ED50 is the dose that gives a 50% effect, or the effect in half of the subjects. On to `NN1CCC2(CC1)OC(c1ccccc1)c1ccccc12` (stereo not drawn) [Example 2, 1'-amino-1,3-dihydro-3-phenylspiro[isobenzofuran-1,4'-piperidine]], for which the inhibition of writhing in data set [1] is reported as 53%. Further, the median effective dose (ED50) in data set [2] (intraperitoneal, mice) was found to be 10.3 mg/kg. Also, in data set [3], the “protection from the effect of a supra maximal electro shock” value was found to be 50%. Also, in data set [4], the LD50 came to 100 mg/kg.

In data set [1], `CC(C)NN1CCC2(CC1)OC(c1ccccc1)c1ccccc12` (stereo not drawn) [Example 3, 1'-(isopropylamino)1,3'-dihydro-3-phenylspiro[isobenzofuran-1,4'-piperidine]] returned an inhibition of writhing of 27%.

As for `O=C(ON1CCC2(CC1)OC(c1ccccc1)c1ccccc12)c1ccccc1` (stereo not drawn) [Example 4, 1'-benzoyloxy-1,3-dihydro-3-phenylspiro[isobenzofuran-1,4'-piperidine]], in data set [1], the inhibition of writhing is 54%.

For `ON1CCC2(CC1)OC(c1ccccc1)c1ccccc12` (stereo not drawn) [Example 8, 1'-hydroxy-1,3-dihydro-3-phenylspiro[isobenzofuran-1,4'-piperidine]], in data set [1], the inhibition of writhing is 53%. In data set [2] (intraperitoneal, mice), the ED50 was determined as 1.4 mg/kg. Further, the LD50 in data set [4] was over 562 mg/kg.

For the molecule `COc1ccc(C2OC3(CCN(O)CC3)c3ccccc32)cc1` (stereo not drawn) [Example 9, 1'-hydroxy-1,3-dihydro-3-(4-methoxyphenyl)spiro[isobenzofuran-1,4'-piperidine]], the ED50 in data set [2] (intraperitoneal, mice) is 2.6 mg/kg. In addition, the LD50 in data set [4] is over 562 mg/kg.

Turning to `COc1ccc2c(c1)C1(CCN(O)CC1)OC2c1ccccc1` (stereo not drawn) [Example 10, 1'-hydroxy-1,3-dihydro-6-methoxy-3-phenylspiro[isobenzofuran-1,4'-piperidine]], the median effective dose (ED50) in data set [2] (intraperitoneal, mice) came to 3.2 mg/kg. Further, in data set [4], the LD50 is over 562 mg/kg.

As to `ON1CCC2(CC1)OC(c1ccc(F)cc1)c1ccccc12` (stereo not drawn) [Example 11, 1'-hydroxy-1,3-dihydro-3-(4-fluorophenyl)spiro[isobenzofuran-1,4'-piperidine]], in data set [2] (intraperitoneal, mice), the ED50 worked out at 4 mg/kg. In addition, the LD50 in data set [4] was 316 mg/kg.

As for `C[N+]1([O-])CCC2(CC1)OC(c1ccccc1)c1ccccc12` (stereo not drawn) [Example 12, 1,3-dihydro-1'-methyl-3-phenylspiro[isobenzofuran-1,4'-piperidine]-1'-oxide], the ED50 in data set [2] turned out to be 6.5 mg/kg. Also, the LD50 in data set [4] turned out to be 280 mg/kg.

As for `[O-][N+]1(Cc2ccccc2)CCC2(CC1)OC(c1ccccc1)c1ccccc12` (stereo not drawn) [Example 13, 1'-benzyl-1,3-dihydro-3-phenylspiro[isobenzofuran-1,4'-piperidine]-1'-oxide], in data set [1], the inhibition of writhing is reported as 48%.
